Experimental data from BindingDB's records for patent US20240034727 (Stingray Therapeutics, 2024).

Target: T1, Ectonucleotide pyrophosphatase/phosphodiesterase family member 1 (Homo sapiens, UniProt P22413)
T1 sequence (P22413 whole entry): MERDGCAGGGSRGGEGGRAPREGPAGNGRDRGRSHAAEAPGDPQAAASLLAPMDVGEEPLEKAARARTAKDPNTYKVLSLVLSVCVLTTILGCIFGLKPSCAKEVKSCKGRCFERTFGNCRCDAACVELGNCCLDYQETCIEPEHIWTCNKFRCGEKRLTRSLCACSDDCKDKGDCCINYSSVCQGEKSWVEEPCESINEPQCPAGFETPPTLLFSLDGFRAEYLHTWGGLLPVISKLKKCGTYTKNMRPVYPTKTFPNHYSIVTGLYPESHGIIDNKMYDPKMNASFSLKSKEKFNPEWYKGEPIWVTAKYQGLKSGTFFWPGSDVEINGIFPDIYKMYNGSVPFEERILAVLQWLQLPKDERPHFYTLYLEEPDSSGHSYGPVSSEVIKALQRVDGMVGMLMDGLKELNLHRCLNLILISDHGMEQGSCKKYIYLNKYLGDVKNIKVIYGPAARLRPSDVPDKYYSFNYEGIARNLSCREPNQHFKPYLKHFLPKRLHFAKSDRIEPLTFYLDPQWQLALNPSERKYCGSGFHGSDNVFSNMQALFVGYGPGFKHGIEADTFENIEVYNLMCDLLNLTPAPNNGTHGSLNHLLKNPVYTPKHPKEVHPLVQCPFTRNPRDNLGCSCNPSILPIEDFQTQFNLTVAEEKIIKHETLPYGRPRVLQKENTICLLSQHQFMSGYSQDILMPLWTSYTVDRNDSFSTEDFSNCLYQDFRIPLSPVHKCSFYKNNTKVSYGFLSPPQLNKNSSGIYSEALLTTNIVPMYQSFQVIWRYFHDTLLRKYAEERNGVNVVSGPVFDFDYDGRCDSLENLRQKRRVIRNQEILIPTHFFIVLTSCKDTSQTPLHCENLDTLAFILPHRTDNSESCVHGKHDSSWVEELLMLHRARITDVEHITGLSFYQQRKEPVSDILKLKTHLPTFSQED
Experiment: ENPP1 Inhibition Assay
Description: Assay Buffer: 1 mM CaCl2), 0.2 mM ZnCl2, 50 mM Tris, pH 9.0. Substrate: 8 mM Thymidine 5′-monophosphate p-nitrophenol ester sodium salt (Sigma Cat #T4510). Enzyme: 5 ng/L Recombinant Human ENPP-1 Protein (R&D Cat #6136-EN-010) in DMSO in 96-well clear assay plates. An eight point serial dilution of drugs was prepared in 10 in assay buffer with the final assay concentrations starting at 10 μM, 3 μM, 1 μM, 0.3 μM and 0 μM. A dilution of DMSO was included as a control. The assay plate was set up as follows with each well in duplicate: 81 μL assay buffer+10 μL ENPP1 inhibitor or DMSO+5 μL Substrate+4 μL Enzyme. Both the enzyme and substrate was added to opposite sides of the well to ensure that there was no interaction until all wells had both components. The plate was then centrifuged gently for 10 seconds, followed by an incubation at 37 C. for 45 minutes. The reaction was quantified by measuring absorbance at 405 nm using the Envision. IC50 values are determined using GraphPad Prism 5 software. The data were entered as an X-Y plot into the software as percent inhibition for each concentration of the drug. The concentration values of the drug were log transformed and the nonlinear regression was carried out using the sigmoidal dose-response (variable slope) option within the GraphPad software to model the data and calculate IC50 values. […]

| IC50 [µM] | Compound |
| --- | --- |
| > 10 | O=C(CSc1nc(C(=O)O)c[nH]1)NCc1cccc(Cl)c1 [US20240034727, Compound I-21] |
| < 0.2 | COc1ccc(NC(=O)CSc2nc(C(=O)O)c[nH]2)cc1Cl [US20240034727, Compound I-35] |
